Data on 13 compounds can be found in ChEMBL document CHEMBL4184222, “A multifaceted approach to identify non-specific enzyme inhibition: Application to Mycobacterium tuberculosis shikimate kinase” (Bioorg Med Chem Lett, 2018).

Values after ≈ are worked out from the molar mass of the structure shown.

The test system of data set [1] is Mycobacterium tuberculosis. Put plainly: Inhibition of Mycobacterium tuberculosis shikimate kinase assessed as reduction in S3P production at 100 uM pre-incubated with 0.02 uM enzyme for 30 mins before ATP and shikimate substrate addition in absence of Triton X-100 by LC-MS assay.
Data set [2] can be described thus: Aggregation property of the compound in ammonium acetate buffer at pH 7.6 assessed as particle size at 100 uM in presence of Triton X-100 by transmission electron microscopy. The settings on record: pH 7.6, 100 µM. The format is physicochemical.
The subject of data set [3] is Mycobacterium tuberculosis. In words: Inhibition of Mycobacterium tuberculosis shikimate kinase assessed as reduction in S3P production at 100 uM pre-incubated with 0.2 uM enzyme for 30 mins before ATP and shikimate substrate addition in absence of Triton X-100 by LC-MS assay.
Data set [4] is described as follows: Aggregation property of the compound in water at pH 7 assessed as light scattering intensity counts at 100 uM in absence of Triton X-100 by dynamic light scattering method. The format is physicochemical. The settings on record: buffer, pH 7, 100 µM.
Data set [5] relates to Mycobacterium tuberculosis. Put plainly: Inhibition of Mycobacterium tuberculosis shikimate kinase assessed as reduction in S3P production at 100 uM pre-incubated with 0.2 uM enzyme for 30 mins before ATP and shikimate substrate addition in presence of Triton X-100 by LC-MS assay.
Data set [6] in a line: Aggregation property of the compound in water at pH 7 assessed as particle size at 100 uM in presence of Triton X-100 by dynamic light scattering method. The format is physicochemical. The settings on record: buffer, pH 7, 100 µM.
Data set [7] has as its system Mycobacterium tuberculosis. In words: Inhibition of Mycobacterium tuberculosis shikimate kinase assessed as reduction in S3P production at 100 uM pre-incubated with 0.02 uM enzyme for 30 mins before ATP and shikimate substrate addition in presence of Triton X-100 by LC-MS assay.
The nature of data set [8]: Aggregation property of the compound in ammonium acetate buffer at pH 7.6 assessed as particle size at 100 uM in presence of Triton X-100 by dynamic light scattering method. The settings on record: pH 7.6, 100 µM. The format is physicochemical.
Data set [9] is described as follows: Aggregation property of the compound in ammonium acetate buffer at pH 7.6 assessed as particle size at 100 uM in absence of Triton X-100 by dynamic light scattering method. The format is physicochemical. The settings on record: pH 7.6, 100 µM.
Data set [10] is described as follows: Aggregation property of the compound in ammonium acetate buffer at pH 7.6 assessed as particle size at 100 uM in absence of Triton X-100 by transmission electron microscopy. The format is physicochemical. The settings on record: pH 7.6, 100 µM.
The nature of data set [11]: Aggregation property of the compound in ammonium acetate buffer at pH 7.6 assessed as light scattering intensity counts at 100 uM in presence of Triton X-100 by dynamic light scattering method. The format is physicochemical. Conditions: pH 7.6, 100 µM.
The nature of data set [12]: Aggregation property of the compound in water at pH 7 assessed as particle size at 100 uM in absence of Triton X-100 by dynamic light scattering method. The format is physicochemical. Conditions: buffer, pH 7, 100 µM.
Data set [13] in a line: Aggregation property of the compound in water at pH 7 assessed as light scattering intensity counts at 100 uM in presence of Triton X-100 by dynamic light scattering method. The settings on record: buffer, pH 7, 100 µM. The format is physicochemical.
Data set [14] relates to Mycobacterium tuberculosis. Put plainly: Inhibition of Mycobacterium tuberculosis shikimate kinase assessed as reduction in S3P production at <50 uM pre-incubated for 30 mins before ATP and shikimate substrate addition by LC-MS assay.
Data set [15] can be described thus: Inhibition of Mycobacterium tuberculosis shikimate kinase assessed as reduction in S3P production […] pre-incubated with 0.015 uM enzyme for 30 mins before ATP and shikimate substrate addition by LC-MS assay.
For data set [16], the system named is Mycobacterium tuberculosis. Put plainly: Antimycobacterial activity against Mycobacterium tuberculosis H37Rv. The format is functional.
Data set [17] in a line: Aggregation property of the compound in ammonium acetate buffer at pH 7.6 assessed as light scattering intensity counts at 100 uM in absence of Triton X-100 by dynamic light scattering method. The format is physicochemical. The settings on record: pH 7.6, 100 µM.

Regarding `CSc1ccc2nc(Nc3nc4ccc(NC(C)=O)cc4s3)sc2c1`, the inhibition in [1] is 97.4%; in [3], 0%; in data set [5] it was 0%; in [7] it was 0%; in [14], over 90%. The Activity was 0.03 um in [2]; 270 kCounts in data set [4]; 275 nm in data set [6]; 271 nm in [8]; 1531 nm in [9]; 0.7 um in [10]. In addition, the Activity in [11] stood at 122 kCounts; in data set [12], 1438 nm; in data set [13], 115 kCounts; in data set [17] it was 285 kCounts. The IC50 in data set [15] came out at 60.6 µM. Also, the IC90 in data set [16] was under 0.2 µg/mL.
`Cc1cc(C)c2sc(N3CCCC3)nc2c1`: the Activity in data set [4] came out at 290 kCounts; in [6], 343 nm; in [8] it was 373 nm; in data set [9] it was 1750 nm; in data set [11], 139 kCounts; in data set [12] it was 1762 nm. The Activity in data set [13] worked out at 130 kCounts; in data set [17], 300 kCounts. For the same compound, the inhibition in data set [14] was over 90%. Moreover, in data set [16], the IC90 turned out to be 1.75 µg/mL (≈ 7.53 µM).
Consider `Cc1ccc(C)c(-c2nnc(NC(=O)c3ccc([N+](=O)[O-])s3)o2)c1`, for which the Activity in [4] turned out to be 237 kCounts; in [6], 176 nm; in data set [8], 151 nm; in data set [9], 986 nm; in [11], 85 kCounts; in data set [12], 973 nm. Besides, the Activity is 80 kCounts in [13] and 240 kCounts in data set [17]. Also, in data set [14], the inhibition was over 90%. In [16], this compound yielded an IC90 of 3.09 µg/mL (≈ 8.97 µM).
Take `O=C(/C=C/c1ccccc1)Nc1nnc(-c2ccc3c(c2)CCCC3)o1`: the inhibition in data set [1] was 95%; in data set [3] it was 0%; in data set [5], 0%; in data set [7] it was 0%; in [14], over 90%. Besides, the Activity in data set [4] was determined as 306 kCounts; in data set [6], 353 nm; in data set [8], 390 nm; in data set [9], 1820 nm; in [11] it was 141 kCounts; in data set [12], 1820 nm. Further, the Activity came to 138 kCounts in data set [13] and 310 kCounts in [17]. The IC50 in data set [15] is 58.4 µM. The IC90 in data set [16] turned out to be 1.68 µg/mL (≈ 4.86 µM).
Take `CCSc1ccc(C(=O)Nc2nnc(-c3ccc4c(c3)CCCC4)o2)cc1`: the Activity turned out to be 330 kCounts in [4]; 410 nm in data set [6]; 480 nm in [8]; 2005 nm in [9]; 158 kCounts in data set [11]; 1921 nm in [12]. Besides, the Activity in data set [13] stood at 152 kCounts; in data set [17], 340 kCounts. In data set [14], the inhibition is over 90%. Further, in data set [16], the IC90 stood at 1.93 µg/mL (≈ 5.09 µM).
As to `CCc1cccc2sc(N(CCCn3ccnc3)C(=O)/C=C/c3cccs3)nc12`, the Activity in [4] is recorded as 380 kCounts; in [6] it was 908 nm; in data set [8] it was 817 nm; in [9], 3776 nm; in data set [11] it was 286 kCounts; in data set [12], 3823 nm. Besides, the Activity in data set [13] is 270 kCounts; in data set [17] it was 400 kCounts. In data set [14], the inhibition was over 90%. The compound further came in with an IC90 in [16] of 0.83 µg/mL (≈ 1.96 µM).
For the compound `CCOc1ccc(C(=O)Nc2nnc(-c3ccc(C)cc3C)o2)cc1`, the Activity in [4] is reported as 280 kCounts; in data set [6], 275 nm; in [8] it was 354 nm; in data set [9], 1620 nm; in [11], 123 kCounts; in data set [12], 1583 nm. The values for the Activity in data set [13] and in [17] were 122 kCounts and 300 kCounts, respectively. For the same compound, in data set [14], the inhibition is over 90%. This compound also registered an IC90 in data set [16] of 1.8 µg/mL (≈ 5.34 µM).
As to `CCCCC(=O)Nc1nnc(-c2ccc3c(c2)CCCC3)o1`, the Activity in data set [4] stood at 260 kCounts; in [6], 259 nm; in data set [8] it was 255 nm; in data set [9] it was 1432 nm; in data set [11], 131 kCounts; in [12], 1324 nm. Moreover, the Activity in data set [13] turned out to be 100 kCounts; in [17], 280 kCounts. Further, in data set [14], the inhibition was over 90%. Besides, the 90% effect level in [16] (IC90) was put at 3.04 µg/mL (≈ 10.2 µM).
As for `Cc1ccc(-c2nnc(NC(=O)c3ccc([N+](=O)[O-])o3)o2)c(C)c1`, the inhibition in data set [1] is 91.6%; in data set [3] it was 0%; in data set [5] it was 0%; in data set [7], 0%; in [14], over 90%. The Activity in [4] is reported as 182 kCounts; in data set [6], 131 nm; in data set [8], 131 nm; in data set [9], 851 nm; in data set [11] it was 83 kCounts; in [12] it was 823 nm. Besides, the results for the Activity in [13] and in [17] were 72 kCounts and 190 kCounts, respectively. Besides, the IC50 in data set [15] is 65.7 µM. Besides, the IC90 in data set [16] was 0.69 µg/mL (≈ 2.1 µM).
In the case of `CC(C)(C)C(=O)Nc1nnc(-c2ccc(Br)cc2)o1`, the Activity amounted to 250 kCounts in [4]; 198 nm in [6]; 201 nm in data set [8]; 1211 nm in data set [9]; 100 kCounts in data set [11]; 1192 nm in [12]. The results for the Activity in [13] and in data set [17] were 92 kCounts and 260 kCounts, respectively. The inhibition in data set [14] was over 90%. Also, in data set [16], the IC90 is under 0.2 µg/mL.
For the compound `O=C(Nc1nnc(-c2ccccc2Cl)o1)c1cccc(Oc2ccccc2)c1`, the inhibition in data set [1] was 90%; in data set [3] it was 0%; in data set [5], 0%; in [7], 0%; in [14], over 90%. The Activity in data set [4] is reported as 330 kCounts; in data set [6], 481 nm; in data set [8] it was 516 nm; in data set [9], 2850 nm; in data set [11] it was 180 kCounts; in data set [12], 2423 nm. For the same compound, the Activity came to 170 kCounts in data set [13] and 350 kCounts in data set [17]. Moreover, in data set [15], the IC50 was 38.7 µM. This compound registered an IC90 in data set [16] of 0.86 µg/mL (≈ 2.19 µM).
Regarding `O=C(c1cccs1)N(CCCn1ccnc1)c1nc2c(F)cc(F)cc2s1`, the Activity in data set [4] worked out at 300 kCounts; in data set [6] it was 398 nm; in data set [8] it was 470 nm; in data set [9], 1934 nm; in [11], 150 kCounts; in [12] it was 1852 nm. The Activity stood at 142 kCounts in data set [13] and 321 kCounts in data set [17]. Besides, in data set [14], the inhibition was over 90%. The compound also came in with an IC90 in data set [16] of 2.38 µg/mL (≈ 5.88 µM).
Regarding `Cc1ccc(-c2nnc(NC(=O)c3ccccc3Cl)o2)c(C)c1`, the Activity in data set [4] is 255 kCounts; in [6] it was 203 nm; in data set [8], 212 nm; in data set [9], 1321 nm; in data set [11], 115 kCounts; in data set [12] it was 1301 nm. Besides, the Activity in [13] turned out to be 95 kCounts; in data set [17], 270 kCounts. Moreover, the inhibition in data set [14] is over 90%. Further, the IC90 in data set [16] is under 0.2 µg/mL.
